Converted amounts (≈) assume the structure as drawn. The source made the active and inactive calls. The calls are words filed in the database; no cut-off is given here.
Tests used:
[1] = Cytotoxicity against human HepG2 cells after 24 to 48 hrs in presence of galactose by trypan blue dye-based hemocytometric method; assay type: cell-based
Escherichia coli = assay: Antibacterial activity against Escherichia coli 25922; assay type: functional, organism-based; details: ATCC 25922
[2] = tested on: Mycobacterium tuberculosis H37Rv; assay: Inhibition of Mycobacterium tuberculosis H37Rv cytochrome bc1 oxidase assessed as reduction in ATP level measured up to 24 hrs under anaerobic condition
Staphylococcus aureus = assay: Antibacterial activity against Staphylococcus aureus XEN36; assay type: functional, organism-based
[3] = tested on: Mycobacterium tuberculosis; assay: Antimycobacterial activity against Mycobacterium tuberculosis H37Rv BSG001; assay type: functional, organism-based
[4] = Cytotoxicity against human HepG2 cells after 24 to 48 hrs in presence of glucose by trypan blue dye-based hemocytometric method; assay type: cell-based
[5] = tested on: Mycolicibacterium smegmatis; assay: Antibacterial activity against Mycobacterium smegmatis; assay type: functional, organism-based
[6] = tested on: Mycobacterium tuberculosis; assay: Antimycobacterial activity against Mycobacterium tuberculosis H37Rv after 2 weeks by microplate alamar blue assay; assay type: functional; details: 336 h
[7] = tested on: Mycobacterium tuberculosis; assay: Antimycobacterial activity against Mycobacterium tuberculosis H37Rv measured after 2 weeks; assay type: functional; details: 336 h
[8] = tested on: Mycobacterium tuberculosis; assay: Antimycobacterial activity against Mycobacterium tuberculosis H37Rv measured after 1 week; assay type: functional; details: 168 h
[9] = tested on: Mycobacteroides abscessus; assay: Antibacterial activity against Mycobacterium abscessus; assay type: functional, organism-based

| Structure (SMILES) | CC50 [1] [µM] | Activity (Escherichia coli) | inhibition [2] | Activity (Staphylococcus aureus) | Activity [3] | CC50 [4] [µM] | Activity [5] | MIC [6] [µM] | MIC [7] [µM] | MIC [8] [µM] | Activity [9] |
| --- | --- | --- | --- | --- | --- | --- | --- | --- | --- | --- | --- |
| COc1ccc(OC)c(CCNC(=O)COc2cc(C)nc3ccc(OC)cc23)c1 | > 122 | inactive | Active | inactive | inactive | > 122 | inactive | 60.9 (≈ 25 µg/mL) | > 122 | 122 (≈ 50 µg/mL) | inactive |
| COc1ccc2nc(C)cc(OCC(=O)Nc3ccccc3)c2c1 | 118 | inactive | Active | inactive | inactive | > 155 | inactive | 0.62 (≈ 0.2 µg/mL) | > 155 | 1.21 (≈ 0.39 µg/mL) | inactive |
| COCCNC(=O)COc1cc(C)nc2ccc(OC)cc12 | > 164 | inactive | Active | inactive | inactive | > 164 | inactive | 122 (≈ 37 µg/mL) | > 164 | > 164 | inactive |
| COc1ccc(NC(=O)COc2cc(C)nc3ccc(OC)cc23)cc1 | > 142 | inactive | Active | inactive | inactive | > 142 | inactive | 1.11 (≈ 0.391 µg/mL) | > 142 | 2.21 (≈ 0.779 µg/mL) | inactive |
| COc1cc(NC(=O)COc2cc(C)nc3ccc(OC)cc23)cc(OC)c1 | > 131 | inactive | Active | inactive | inactive | > 131 | inactive | 24.6 (≈ 9.4 µg/mL) | > 131 | > 131 | inactive |
| c1ccc(Cn2cnc3c(-c4ccco4)nccc32)cc1 | > 25 |  | Active |  |  | > 25 |  | 1.56 (≈ 0.429 µg/mL) | > 25 | 12.5 (≈ 3.44 µg/mL) |  |
| COc1ccc2nc(C)cc(OCC(=O)NCc3ccc4c(c3)OCO4)c2c1 | 86.9 | inactive | Active | inactive | inactive | > 131 | inactive | 0.53 (≈ 0.202 µg/mL) | 24.7 (≈ 9.4 µg/mL) | 0.53 (≈ 0.202 µg/mL) | inactive |
| COc1ccccc1NC(=O)COc1cc(C)nc2ccc(C)cc12 | > 74 | inactive | Active | inactive | inactive | > 74 | inactive | 9.3 (≈ 3.13 µg/mL) | > 74 | 56.5 (≈ 19 µg/mL) | inactive |
| COc1ccc2nc(C)cc(OCC(=O)NCCc3ccccc3)c2c1 | 83.9 | inactive | Active | inactive | inactive | 61.4 | inactive | 54.2 (≈ 19 µg/mL) | > 143 | 143 (≈ 50 µg/mL) | inactive |
| COc1ccc2nc(C)cc(OCC(=O)NCCc3ccc4c(c3)OCO4)c2c1 | > 127 | inactive | Active | inactive | inactive | > 127 | inactive | 31.7 (≈ 12.5 µg/mL) | > 127 | ≥ 127 | inactive |
| CC(=O)NC[C@H]1CN(c2ccc(N3CCOCC3)c(F)c2)C(=O)O1 [LINEZOLID] |  |  | inactive |  |  |  |  | 2.3 (≈ 0.776 µg/mL) | 2.3 (≈ 0.776 µg/mL) | 2.3 (≈ 0.776 µg/mL) |  |
| COc1ccccc1NC(=O)COc1cc(C)nc2ccc(Br)cc12 | > 125 | inactive | Active | inactive | inactive | > 125 | inactive | > 125 | > 125 | 23.4 (≈ 9.4 µg/mL) | inactive |
| COc1ccc2nc(C)cc(OCC(=O)Nc3cccc(Br)c3)c2c1 | > 125 | inactive | Active | inactive | inactive | > 125 | inactive | > 125 | > 125 | 92.2 (≈ 37 µg/mL) | inactive |
| COc1ccc2nc(C)cc(OCC(=O)NCCc3ccc(OC)c(OC)c3)c2c1 | > 122 | inactive | Active | inactive | inactive | > 122 | inactive | 122 (≈ 50.1 µg/mL) | > 122 | > 122 | inactive |
| COc1ccccc1NC(=O)COc1cc(C)nc2ccc(C(F)(F)F)cc12 | > 128 | inactive | Active | inactive | inactive | > 128 | inactive | > 128 | > 128 | > 128 | inactive |
| CCCCCC[C@H]1C(=O)O[C@H](C)[C@H](NC(=O)c2cccc(NC=O)c2O)C(=O)O[C@@H](C)[C@@H]1OC(=O)CC(C)C [ANTIMYCIN A] | 0.017 |  |  |  |  | > 50 |  |  |  |  |  |
| COc1ccc2nc(C)cc(OCC(=O)Nc3ccc(Br)cc3)c2c1 | > 125 | inactive | Active | inactive | inactive | > 125 | inactive | 1.94 (≈ 0.778 µg/mL) | > 125 | > 125 | inactive |
| COc1ccccc1NC(=O)COc1cc(C)nc2ccccc12 | 8.64 | inactive | Active | inactive | inactive | 43.9 | inactive | > 78 | > 155 | 38.8 (≈ 12.5 µg/mL) | inactive |
| COc1ccc2nc(C)cc(OCC(=O)Nc3ccc(C)cc3)c2c1 | 41.5 | inactive | Active | inactive | inactive | > 149 | inactive | 0.45 (≈ 0.151 µg/mL) | > 149 | 0.45 (≈ 0.151 µg/mL) | inactive |
| C#CCNC(=O)COc1cc(C)nc2ccc(OC)cc12 | > 176 | inactive | Active | inactive | inactive | > 176 | inactive | > 176 | > 176 | > 176 | inactive |
| COc1cccc(NC(=O)COc2cc(C)nc3ccc(OC)cc23)c1 | 24.7 | inactive | Active | inactive | inactive | 43 | inactive | 6.53 (≈ 2.3 µg/mL) | > 142 | 142 (≈ 50 µg/mL) | inactive |
| CCCCCNC(=O)COc1cc(C)nc2ccc(OC)cc12 | 106 | inactive | Active | inactive | inactive | > 158 | inactive | 19.8 (≈ 6.25 µg/mL) | 158 (≈ 50 µg/mL) | 158 (≈ 50 µg/mL) | inactive |
| COc1ccc2nc(C)cc(OCC(=O)Nc3ccc(Cl)cc3)c2c1 | 71.1 | inactive | Active | inactive | inactive | 89.9 | inactive | 3.36 (≈ 1.2 µg/mL) | > 140 | 104 (≈ 37 µg/mL) | inactive |
| COc1ccc2nc(C)cc(OCC(=O)Nc3ccc(-c4ccccc4)cc3)c2c1 | > 126 | inactive | Active | inactive | inactive | > 126 | inactive | 1.51 (≈ 0.602 µg/mL) | > 125 | > 125 | inactive |
| COc1ccccc1NC(=O)COc1cc(C)nc2ccc(Cl)cc12 | 99.2 | inactive | Active | inactive | inactive | 140 | inactive | 104 (≈ 37 µg/mL) | > 140 | 26.4 (≈ 9.4 µg/mL) | inactive |
| COc1ccc2nc(C)cc(OCC(=O)Nc3ccccc3Cl)c2c1 | > 140 | inactive | Active | inactive | inactive | > 140 | inactive | 0.56 (≈ 0.2 µg/mL) | 53.2 (≈ 19 µg/mL) | 26.4 (≈ 9.4 µg/mL) | inactive |
| Nc1ccc(C(=O)O)c(O)c1 [AMINOSALICYLIC ACID] |  |  |  |  |  |  |  | 0.3 (≈ 0.0459 µg/mL) | 0.6 (≈ 0.0919 µg/mL) | 0.3 (≈ 0.0459 µg/mL) |  |
| COc1nc2ccc(Br)cc2cc1[C@@H](c1ccccc1)[C@@](O)(CCN(C)C)c1cccc2ccccc12 |  |  | Active |  |  |  |  |  |  |  |  |

Source: ChEMBL document CHEMBL4190162, “SAR and identification of 2-(quinolin-4-yloxy)acetamides as Mycobacterium tuberculosis cytochrome bc1 inhibitors” (Medchemcomm, 2016)
